# Source: patent publication US6914045B2, “Glycopeptide antibiotics” (Wyeth Holdings Corporation, priority 2001, dated 2005)
# Experiments:
# Enterococcus sp. = test: in vitro antibacterial evaluation, MIC by broth dilution; assay type: cell-based; details: broth dilution, 18 hours at 35° C.
# Outline: (§1)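 Test organisms, which included recent clinical isolates resistant to methicillin, penicillin and/or vancomycin, were inoculated at 5×10^5 CFU/mL into Muller-Hinton II […] containing antibiotic at 64-0.06 μg/mL. Minimum inhibitory concentrations were then read as the lowest level inhibiting growth.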
# Staphylococcus sp. = test: as above; assay type: cell-based; details: broth dilution, 18 hours at 35° C.
# Outline: as §1
# Streptococcus sp. = test: as above; assay type: cell-based; details: broth dilution, 18 hours at 35° C.
# Outline: as §1
# Escherichia coli = test: as above; assay type: cell-based; details: 18 hours at 35° C.
# Outline: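 MIC is the lowest antibiotic concentration (tested 64-0.06 μg/mL) preventing growth of a 5×10^5 CFU/mL inoculum. Determined by broth dilution in Mueller-Hinton II medium following NCCLS standard M7-A2.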
# [1] = anatomic pathology (histopathology of heart and kidney) in mice; assay type: in vivo; details: CD-1 mice, 20 mg/kg intravenously daily for 9 days, necropsy day 10, microscopic histopathology
# Protocol: Samples of tissues from necropsied mice were formalin-fixed, paraffin-embedded, sectioned, stained with hematoxylin and eosin, and examined microscopically. Histopathologic findings were recorded. These findings were subjectively graded on a scale corresponding to slight, mild, moderate, marked and severe as compared to untreated controls.
compound,measurement,setting,value
"CC(c1ccccc1)C1NC(=O)CNC(=O)C(CO)NC(=O)C(C(O)C2CN(Cc3ccc4ccccc4c3)C(=N)N2C2OC(CO)C(O)C(O)C2O)NC(=O)C(C(O)C2CNC(=N)N2)NC(=O)C(Cc2ccc(OC3OC(CO)C(OC4OC(CO)C(O)C(O)C4O)C(O)C3O)cc2)NC1=O (stereo not drawn) [Example 67, Cyclo[glycyl-β-methylphenylalanyl-O-(4-O-hexopyranosylhexoyranosyl)tyrosyl-3-(2-iminoimidazolidin-4-yl)seryl-3-[3-hexopyranosyl-2-imino-1-(2-naphthylmethyl)-imidazolidin-4-yl]-serylseryl]]",MIC Enterococcus avium (GC 4558),Enterococcus sp.; Enterococcus avium (GC 4558),64 µg/mL
same,MIC Enterococcus faecalis (ATCC 29212),Enterococcus sp.; Enterococcus faecalis (ATCC 29212),128 µg/mL
same,MIC Enterococcus faecalis (GC 4552),Enterococcus sp.; Enterococcus faecalis (GC 4552),128 µg/mL
same,MIC Enterococcus faecalis (GC 4553),Enterococcus sp.; Enterococcus faecalis (GC 4553),128 µg/mL
same,MIC Enterococcus faecalis (GC 4554),Enterococcus sp.; Enterococcus faecalis (GC 4554),>128 µg/mL
same,MIC Enterococcus faecalis (GC 6189),Enterococcus sp.; Enterococcus faecalis (GC 6189),128 µg/mL
same,MIC Enterococcus faecium (GC 2243),Enterococcus sp.; Enterococcus faecium (GC 2243),>128 µg/mL
same,MIC Enterococcus faecium (GC 4556),Enterococcus sp.; Enterococcus faecium (GC 4556),>128 µg/mL
same,MIC Enterococcus faecium (GC 4557),Enterococcus sp.; Enterococcus faecium (GC 4557),128 µg/mL
same,MIC Enterococcus avium (GC 4558),Enterococcus sp.,64 µg/mL
same,MIC Enterococcus faecalis (ATCC 29212),Enterococcus sp.,128 µg/mL
same,MIC Enterococcus faecalis (GC 2242),Enterococcus sp.,128 µg/mL
same,MIC Enterococcus faecalis (GC 2691),Enterococcus sp.,128 µg/mL
same,MIC Enterococcus faecalis (GC 3059),Enterococcus sp.,128 µg/mL
same,MIC Enterococcus faecalis (GC 4552),Enterococcus sp.,128 µg/mL
same,MIC Enterococcus faecalis (GC 4553),Enterococcus sp.,128 µg/mL
same,MIC Enterococcus faecalis (GC 4554),Enterococcus sp.,>128 µg/mL
same,MIC Enterococcus faecalis (GC 6189),Enterococcus sp.,128 µg/mL
same,MIC Enterococcus faecium (GC 2243),Enterococcus sp.,>128 µg/mL
same,MIC Enterococcus faecium (GC 4556),Enterococcus sp.,>128 µg/mL
same,MIC Enterococcus faecium (GC 4557),Enterococcus sp.,128 µg/mL
same,MIC Enterococcus faecalis (GC 2242),Enterococcus sp.; strain GC 2242,128 µg/mL
same,MIC Enterococcus faecalis (GC 2691),Enterococcus sp.; strain GC 2691,128 µg/mL
same,MIC Enterococcus faecalis (GC 3059),Enterococcus sp.; strain GC 3059,128 µg/mL
same,MIC Staphylococcus aureus (ATCC 29213),Staphylococcus sp.; strain ATCC 29213,>128 µg/mL
same,MIC Staphylococcus aureus (GC 1131),Staphylococcus sp.; strain GC 1131,>128 µg/mL
same,MIC Staphylococcus aureus (GC 3051),Staphylococcus sp.; strain GC 3051,>128 µg/mL
same,MIC Staphylococcus aureus (GC 3053),Staphylococcus sp.; strain GC 3053,>128 µg/mL
same,MIC Staphylococcus aureus (GC 4541),Staphylococcus sp.; strain GC 4541,>128 µg/mL
same,MIC Staphylococcus aureus (GC 4542),Staphylococcus sp.; strain GC 4542,>128 µg/mL
same,MIC Staphylococcus aureus-SMITH (GC 4543),Staphylococcus sp.; strain GC 4543,>128 µg/mL
same,MIC Staphylococcus aureus (GC 4544),Staphylococcus sp.; strain GC 4544,>128 µg/mL
same,MIC Staphylococcus aureus (GC 4545),Staphylococcus sp.; strain GC 4545,>128 µg/mL
same,MIC Staphylococcus haemolyticus (GC 4546),Staphylococcus sp.; strain GC 4546,>128 µg/mL
same,MIC Coagulase Negative Staphylococcus (GC 4547),Staphylococcus sp.; strain GC 4547,128 µg/mL
same,MIC Coagulase Negative Staphylococcus (GC 4548),Staphylococcus sp.; strain GC 4548,>128 µg/mL
same,MIC Coagulase Negative Staphylococcus (GC 4549),Staphylococcus sp.; strain GC 4549,>128 µg/mL
same,MIC Coagulase Negative Staphylococcus (GC 4551),Staphylococcus sp.; strain GC 4551,>128 µg/mL
same,MIC Coagulase Negative Staphylococcus (GC 6257),Staphylococcus sp.; strain GC 6257,>128 µg/mL
same,MIC Streptococcus agalactiae (GC 4564),Streptococcus sp.,128 µg/mL
same,MIC Streptococcus pneumoniae (ATCC 6301),Streptococcus sp.,128 µg/mL
same,MIC Streptococcus pneumoniae (GC 1894),Streptococcus sp.,64 µg/mL
same,MIC Streptococcus pneumoniae (GC 4565),Streptococcus sp.,128 µg/mL
same,MIC Streptococcus pyogenes (GC 4563),Streptococcus sp.,128 µg/mL
same,MIC Streptococcus pneumoniae (ATCC 6301),Streptococcus sp.; strain ATCC 6301,128 µg/mL
same,MIC Streptococcus pneumoniae (GC 1894),Streptococcus sp.; strain GC 1894,64 µg/mL
same,MIC Streptococcus pyogenes (GC 4563),Streptococcus sp.; strain GC 4563,128 µg/mL
same,MIC Streptococcus agalactiae (GC 4564),Streptococcus sp.; strain GC 4564,128 µg/mL
same,MIC Streptococcus pneumoniae (GC 4565),Streptococcus sp.; strain GC 4565,128 µg/mL
same,MIC Escherichia coli (ATCC 25922),Escherichia coli,>128 µg/mL
same,MIC Escherichia coli (GC 4559),Escherichia coli,>128 µg/mL
same,MIC Escherichia coli (GC 4560),Escherichia coli,32 µg/mL
same,"Anatomical Pathology (Day 10), Heart",[1],0
same,"Anatomical Pathology (Day 10), Kidney",[1],0
